Results from US6379651B1, “Oral-topical dosage forms for delivering antibacterials/antibiotics to oral cavity to eradicate H. pylori as a concomitant treatment for peptic ulcers and other gastro-intestinal diseases” (priority 1995, dated 2002).

Tests used:
[1] = in vivo; cited from earlier work
H. pylori [2] = conditions: in vivo; cited from earlier work
[3] = Diabetic mouse wound healing model; assay type: in vivo; conditions: formulations of 10 mcg/ml to 1,000 mcg/ml
Procedure: Further, wound healing potential of the above bismuth compounds is evaluated using a diabetic mouse wound healing model (Matuszewska et al., Pharmaceutical Research 11(1):65-71 (1994), incorporated herein by reference).

[4] = Freeze-injured skin graft model; assay type: in vivo; conditions: for wound healing rates compared to placebo: Doses of 10 to 1000 mcg/mL; for wound healing in cryoinjured grafts: in vivo
rat mesentery culture = test: In vitro rat mesentery culture wound closure model; assay type: cell-based; conditions: for concentrations of growth factors EGF and FGF: 10 mcg/mL to 1,000 mcg/mL in medium, 2% fetal calf serum; for wound closure: 10 mcg/mL to 1,000 mcg/mL, 24-hour, 48-hour and 72-hour, compared to the placebo
From the text: This tissue culture model is useful for gaining insights into growth factor interactions and wound healing.

Helicobacter pylori = test: In vitro MIC, Helicobacter pylori; assay type: cell-based
Treponema denticola = test: In vitro MIC, Treponema denticola; assay type: cell-based
Campylobacter rectus = test: In vitro MIC, Campylobacter rectus; assay type: cell-based
[5] = Procedure: Artificial saliva was used (Table 9).
Artificial saliva is used (Table 9).
The test saliva is prepared by dissolving 0.500 g of the antibiotic or antibacterial agent in a 100 mL of the above artificial saliva. […] The denture materials that are exposed to artificial saliva containing the agent or placebo are evaluated.

[6] = in vivo; cited from earlier work; remark: listed apart in the source
H. pylori [7] = conditions: cited from earlier work
[8] = compared with placebo, cimetidine and ranitidine; cited from earlier work

Compound	secretion in the saliva [1]	eradication rate for H. pylori (H. pylori [2]) [%]	wound healing compared to placebo [3]	wound healing rates compared to placebo [4]	wound healing in cryoinjured grafts [4]	concentrations of growth factors EGF and FGF (rat mesentery culture)	wound closure (rat mesentery culture)	minimum effective concentrations (MICs) (Helicobacter pylori) [µg/mL]	minimum effective concentrations (MICs) (Treponema denticola) [µg/mL]	minimum effective concentrations (MICs) (Campylobacter rectus) [µg/mL]	absorption from the GI [1]	staining, discoloration or changes in texture of natural tooth and denture materials [5]	steady-state blood levels unlikely to cause any neurotoxicity [6]	minimum inhibitory concentration (MIC) against H. pylori (H. pylori [7]) [µg/mL]	MIC against H. pylori, range (H. pylori [7]; range) [µg/mL]	relapse rates of duodenal ulcers [8]
CC[C@H]1OC(=O)[C@H](C)[C@@H](O[C@H]2C[C@@](C)(OC)[C@@H](O)[C@H](C)O2)[C@H](C)[C@@H](O[C@@H]2O[C@H](C)C[C@H](N(C)C)[C@H]2O)[C@](C)(OC)C[C@@H](C)C(=O)[C@H](C)[C@@H](O)[C@]1(C)O [Clarithromycin]	secreted in the saliva															
Cc1ncc([N+](=O)[O-])n1CCO [metronidazole]		5														
L-dihydro ascorbyl-tetrakis (hydrogen sulfate) bismuth complex [Bismuth Ascorbyl Sulfate]			heal faster	significant increase	stimulates wound healing in cryoinjured grafts in a dose-related fashion	Significantly higher	significantly faster wound closure rate and complete closure	8	16	256						
beta-D-fructofuranosyl-oktakis (hydrogen sulfate) bismuth complex [Bismuth Sucrose Sulfate]								16	32	>256						
colloidal bismuth subcitrate [CBS]	produces no salivary concentrations		heal faster	significant increase	stimulates wound healing in cryoinjured grafts in a dose-related fashion	Significantly higher	significantly faster wound closure rate and complete closure	2	32	256	not absorbed significantly	did not cause any staining, discoloration, or changes in texture	50-100	8	4 to 32	significantly lower relapse rates
